The results in this text go back to ChEMBL document CHEMBL3774380, “Development of Noviomimetics as C-Terminal Hsp90 Inhibitors” (ACS Med Chem Lett, 2016).

Active and inactive are the calls of the source. The calls are words filed in the database; no cut-off is given here.

For one test, the species on record is Rattus norvegicus. In words: Inhibition of Hsp90 in rat 50B11 cells assessed as increase in Hsp70 level at 0.5 to 1000 nM after 24 hrs by Western blot method. The format is cell-based. For orientation: Immunoblotting shows a protein as a band on a membrane.
`CO[C@@H]1[C@@H](O)[C@@H](O)[C@H](Oc2ccc(CCNC(C)=O)c(-c3cccc(F)c3)c2)OC1(C)C`: the inhibition result was “Active”.
On the same count and under the same terms, the same measure for `CC(=O)NCCc1ccc(OC2CCC(OCc3ccccc3)CC2)cc1-c1cccc(F)c1` (mixture of isomers): “Active”.

For a further test, the species on record is Rattus norvegicus. Nature of the test: Inhibition of Hsp90 in rat 50B11 cells expressing human HSPA1A gene assessed as increase in Hsp70 level at 10 to 1000 nM after 16 hrs by luciferase reporter assay. It counts as cell-based. Background: In a reporter assay the amount or activity of a reporter protein is the signal.
For the molecule `CC(=O)NCCc1ccc(O[C@@H]2CC[C@@H](OCc3ccccc3)C2)cc1-c1cccc(F)c1`, the inhibition entry was “inactive”.
For `CC(=O)NCCc1ccc(O[C@H]2CC[C@@H](OCc3ccccc3)C2)cc1-c1cccc(F)c1`, the inhibition entry was “inactive”.
As to `CC(=O)NCCc1ccc(OC2CCC(O)CC2)cc1-c1cccc(F)c1` (mixture of isomers), the inhibition result is “Active”.
Still for that read-out and setting: the result for `CC(=O)NCCc1ccc(OC2CCC(OCc3ccccc3)CC2)cc1-c1cccc(F)c1` (mixture of isomers) reads “Active”; that for `CC(=O)NCCc1ccc(OC2CCCC(O)C2)cc1-c1cccc(F)c1` (mixture of isomers), “Active”; that for `CC(=O)NCCc1ccc(OC2CCCC(OCc3ccccc3)C2)cc1-c1cccc(F)c1` (mixture of isomers), “Active”.
Same read-out and setting: the result for `CC(=O)NCCc1ccc(OC2C[C@H](O)CO2)cc1-c1cccc(F)c1` (mixture of isomers) reads “inactive”; that for `CC(=O)NCCc1ccc(OC2OCCC2O)cc1-c1cccc(F)c1` (mixture of isomers), “inactive”.
Still for that read-out and setting: the result for `CC(=O)NCCc1ccc(OC2OC[C@@H](O)[C@H]2O)cc1-c1cccc(F)c1` (mixture of isomers) reads “inactive”; that for `CC(=O)NCCc1ccc(OC2C=CCC(C)(C)C2)cc1-c1cccc(F)c1` (racemic), “inactive”; that for `CC(=O)NCCc1ccc(OC2C=CCCC2)cc1-c1cccc(F)c1` (racemic), “inactive”.
